Results reported in patent US20230292743A1, “Method for increasing the lifespan and motility of animal sperm using an inhibitor of Slo3 potassium channel” (IMV TECHNOLOGIES, priority 2017, published 2023).

What was measured:
[1] = tested on: bovine sperm; experiment: In vitro fertilization with bovine sperm frozen with clofilium, washed or not washed after thawing; format: cell-based; conditions: bovine sperm frozen with 0.2 μM clofilium, vs control
Description: In order to be as close as possible of the possible field usage, sperm were frozen with clofilium prior to test their ability to improve fertilization. Two conditions were tested: in the first one, clofilium was present during the sperm incubation period, and in the second one, sperm was washed to remove clofilium in order to mimic the condition that may occur in the female reproductive tract. Straws containing clofilium were obtained as described below. Bovine ejaculate was split into two fractions, and diluted 1:1 in either Optixcell (Fraction 1) or Optixcell containing clofilium 0.2 μM (Fraction 2). After 10 minutes of 34° C. incubation, semen was then diluted to a final concentration of 57 million of spermatozoa/ml in Optixcell (Fraction 1) or Optixcell containing clofilium 0.2 μM (Fraction 2). Diluted semen was frozen as described above and stored in liquid nitrogen until in vitro fertilization. Two types of straws were used: control straws and straws containing clofilium. For straws containing clofilium, two conditions were tested: washed and not washed. The wash medium is a commonly used medium, sp-TALP, for bovine sperm handling and which composition is described above. For “not washed” conditions, sperm were incubated with sp-TALP containing 0.2 μM clofilium. […]

[2] = tested on: bovine sperm; experiment: CASA motility of bovine sperm subpopulation with VCL >150 μm/s, sperm frozen with clofilium; format: cell-based; conditions: bovine sperm frozen with 0.2 μM clofilium, 24 h in capacitation medium with 0.2 μM clofilium, vs control
Description: However, only sperm presenting a sufficient velocity are able to cross the protective layers surrounding the egg and thus are competent for fertilizing eggs. To take this into account, sperm presenting a VCL >150 μm/s were selected and their velocity measured at different time (0 h and 24 h) in control condition or in the presence of clofilium. Sperm were frozen without clofilium (control) and with clofilium prior to test their motility. In the second case, clofilium was present during the sperm incubation period and during the capacitation period. Bovine ejaculate was split into two fractions, and diluted 1:1 in either Optixcell (Fraction 1) or Optixcell containing clofilium 0.2 μM (Fraction 2). After 10 minutes of 34° C. incubation, semen was then diluted to a final concentration of 57 million of spermatozoa/ml in Optixcell (Fraction 1) or Optixcell containing clofilium 0.2 μM (Fraction 2). Diluted semen was frozen as described above and stored in liquid nitrogen until in vitro fertilization. Thus, two types of straws were used: control straws and straws containing clofilium (0.2 μM ). Straws were thawed in a water-bath at 37° C. for 45 s. Each straw was wiped with 70° ethanol before opening. […] Spermatozoa presenting a VCL >150 μm/s were selected and their motility was measured using CASA, performed as above in control condition or in the presence of clofilium. […]

Compound: CCCCCCC[N+](CC)(CC)CCCCc1ccc(Cl)cc1 [clofilium]
- percentage of 2-cell embryos vs matured oocytes at 24 h post fertilization ([1]; not washed (clofilium present in sp-TALP), up to 48 h incubation): positive effect on embryo outcome lasted 48 hours
- percentage of 2-cell embryos vs matured oocytes at 24 h post fertilization ([1]; washed clofilium, 24 h incubation in sp-TALP): positive effect at 24 hours is still present, although lower
- percentage of 2-cell embryos vs matured oocytes at 24 h post fertilization ([1]; washed clofilium, 48 h incubation in sp-TALP): the effect is no longer present
- motility (in terms of VCL) of sperm subpopulation with VCL >150 μm/s [2]: higher mean velocity
